{"source": "patent US20250108119A1", "about": "“NOVEL STEROID PAYLOADS, STEROID LINKERS, ADCs CONTAINING AND USE THEREOF” (IMMUNEXT, INC., priority 2021, published 2025)", "key": {"[1]": {"system": "human PBMC", "assay": "Cytokine production (IL-1β, IL-6) at 24 hr by human PBMC incubated with 1 ng/mL LPS", "format": "cell-based", "settings": "anti-VISTA conjugates, serial dilutions with respect to total ADC concentration (20-0.003 μg/mL), equivalent or reduced DAR", "how_it_was_run": "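Human PBMC were stimulated with 1 ng/mL LPS together with serial dilutions of steroid payloads or glucocorticoid conjugates, spanning up to 8,000 nM down to 0.032 nM depending on the series. IL-1β and IL-6 were measured at 24 hr from technical duplicates, with 1-2 donors. Values above the ULOQ were extrapolated.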"}, "[2]": {"system": "FKBP5", "assay": "FKBP5 transcription in peritoneal resident macrophages (PRM) and spleen cells after in vivo treatment", "parameters": "species or system hVISTA mice", "settings": "linker payloads as anti-VISTA conjugates"}}}
{"smiles": "C[C@]12C=CC(=O)C=C1CC[C@@H]1[C@@H]2[C@@H](O)C[C@@]2(C)[C@H]1C[C@H]1O[C@@H](c3ccc(CC4CC5(C4)CC(NC(=O)[C@H](CCC(=O)O)NC(=O)CNC(=O)CBr)C5)cc3)O[C@]12C(=O)CO", "note": "(stereo partly drawn) [INX V, (S)-4-(2-(2-bromoacetamido)acetamido)-5-((6-(4-((6aR,6bS,7S,8aS,8bS,10R,11aR,12aS,12bS)-7-hydroxy-8b-(2-hydroxyacetyl)-6a,8a-dimethyl-4-oxo-2,4,6a,6b,7,8,8a,8b,11a,12,12a,12b-dodecahydro-1H-naphtho[2′,1′:4,5]indeno[1,2-d][1,3]dioxol-10-yl)benzyl)spiro[3.3]heptan-2-yl)amino)-5-oxopentanoic acid]", "values": [{"measurement": "potency in reducing IL-1β production", "setting": "[1]", "value": "enhanced potency"}, {"measurement": "FKBP5 induction when dosed 14 days early (conclusions)", "setting": "[2]", "value": "still display significant potency when dosed 14 days early in regard to FKBP5 induction"}]}
